pIC50: −log10 of the molar value. Read-outs that look alike come from different tables or passages of the source. Marks after values point to notes of the source that are not given here.
Tests used:
[1] = tested on: NCI-H1975-BCRP cells; assay: Cytotoxicity (Alamar Blue), NCI-H1975-BCRP; type: cell-based, human; conditions: 72 h, no elastase
Protocol: (§1) Cells (6 × 10^3 cells/well) were plated in RPMI-1640 medium supplemented with 2% fetal calf serum (FCS) minimal media (MM) in 96-well plates and allowed to adhere at 37 °C/5% CO2 for 24 h. […] The cells were incubated at 37 °C/5% CO2 for 72 h. Then, Alamar Blue (#DAL1100, Invitrogen, Waltham, MA, USA) was added at a 1:1 ratio, the cells were incubated at 37 °C/5% CO2 for 4 h, and fluorescence (530 nm/590 nm) was measured with a VICTOR X2 Multilabel Reader (PerkinElmer, Waltham, MA, USA). The fluorescent signal was directly proportional to the number of viable cells. The half-maximal growth inhibition (IC50) was determined from the dose–response curves using the GraphPad Prism software.

[2] = molecular target: T1, human P-gp-expressing LLC-PK1 cells (Homo sapiens, UniProt P08183); assay: Flux assay in human P-gp-expressing LLC-PK1 (L-MDR1) cells; type: in vitro ADME; conditions: 2 μM, 2 h
T1 construct: Schinkel, Netherlands Cancer Institute; host or cells: LLC-PK1 porcine renal epithelial cells (L-MDR1)
Protocol: (§2) Before and after incubation for 2 h at 37 °C, samples were taken from both compartments and analyzed by LC-MS/MS. The apparent permeability coefficient (Papp) was calculated for both the apical to basolateral (A → B) and the basolateral to apical (B → A) direction as described by Schwab et al..

[3] = tested on: NCI-H1975 cells; assay: Cytotoxicity (Alamar Blue), parental NCI-H1975; type: cell-based, human; conditions: 72 h, no elastase
Protocol: as §1

[4] = tested on: NCI-H1975-P-gp cells; assay: Cytotoxicity (Alamar Blue), NCI-H1975-P-gp; type: cell-based, human; conditions: 72 h, no elastase
[5] = tested on: Caco-2 cells; assay: Flux assay in Caco-2 cells; type: in vitro ADME, human; conditions: 2 μM, 2 h
Protocol: as §2

[6] = tested on: MX-1 TNBC xenograft model
Text: In the MX-1 efficacy study, the in vivo-grown tumor fragments (2 mm × 2 mm × 2 mm) were implanted s.c. in immunocompromised female NMRI nu/nu mice (8–10 weeks, 18–21 g, Taconic M&B A/S). The mice were randomized into control and treatment groups (n = 8) when the MX-1 tumors reached an average size of 25 mm^2.
(§3) Subcutaneous tumor growth was monitored by measuring tumor area (length × width) using a caliper. Animal body weight was monitored as an indicator of treatment-related toxicity. Measurement of tumor area and body weight was performed at least twice weekly. Individual animals were sacrificed when showing >20% body weight loss or when tumors reached a maximum area of ~200 mm^2 unless ulceration or other predefined humane endpoints were met. At study termination, the animals were sacrificed by cervical dislocation under CO2 anesthesia. T/C (treatment/control) ratios were calculated using the final mean tumor areas at study or control group termination. Treatment responses were defined on the last day of the vehicle group (Day 38 for 786-O, Day 86 for MX-1, Day 31 for NCI-H69, and Day 24 for SW480) using the RECIST criteria [59]. Progressive disease (PD) was defined as a greater than 20% increase in tumor size. Partial response (PR) was defined as a greater than 30% reduction in tumor size. Complete response (CR) was defined as an absence of any palpable tumor mass. No tumor growth or a slight reduction (<30%) or small increase (<20%) in tumor size was defined as stable disease (SD).

[7] = tested on: NCI-H69 SCLC xenograft model; assay: NCI-H69 xenograft antitumor efficacy and tolerability; type: in vivo, mouse; conditions: for Treatment/Control Ratio / Response: PD (progressive disease) / Response: SD (stable disease): NCI-H69, Day 31; for Response: PD (progressive disease) / Response: SD (stable disease): RECIST
Protocol: Irinotecan, doxorubicin, topotecan, cisplatin, and 5-FU were diluted in 0.9% NaCl.
In the NCI-H69 efficacy study, immunocompromised female NMRI nu/nu mice (8–10 weeks, 18–21 g, Taconic M&B A/S) were inoculated s.c. with 3 × 10^6 NCI-H69 cells suspended in 50% Matrigel®/50% medium. The mice were randomized into control and treatment groups (n = 8) when the NCI-H69 tumors reached an average size of 25 mm^2.
as §3

[8] = tested on: SW480 CRC xenograft model; assay: SW480 xenograft antitumor efficacy; type: in vivo, mouse; conditions: for Treatment/Control Ratio: Day 24; for Response: PR (partial response) / Response: SD (stable disease) / Response: PD (progressive disease): Day 24, RECIST
Text: In the SW480 efficacy study, immunocompromised female NMRI nu/nu mice (8–10 weeks, 18–21 g, Taconic M&B A/S) were inoculated subcutaneously with 3 × 10^6 SW480 cells suspended in 50% Matrigel®/50% medium. The mice were randomized into control and treatment groups (n = 8) when the SW480 tumors reached an average size of 25 mm^2.
Subcutaneous tumor growth was monitored by measuring tumor area (length × width) using a caliper. Animal body weight was monitored as an indicator of treatment-related toxicity. Measurement of tumor area and body weight was performed at least twice weekly. Individual animals were sacrificed when showing >20% body weight loss or when tumors reached a maximum area of ~200 mm^2 unless ulceration or other predefined humane endpoints were met. At study termination, the animals were sacrificed by cervical dislocation under CO2 anesthesia. T/C (treatment/control) ratios were calculated using the final mean tumor areas at study or control group termination. […] Progressive disease (PD) was defined as a greater than 20% increase in tumor size. Partial response (PR) was defined as a greater than 30% reduction in tumor size. Complete response (CR) was defined as an absence of any palpable tumor mass. No tumor growth or a slight reduction (<30%) or small increase (<20%) in tumor size was defined as stable disease (SD).

[9] = topotecan 0.5 mg/kg, 7 on/7 off, i.v.
[10] = MX-1, irinotecan 15 mg/kg, 4 on/3 off, i.v., Day 86, RECIST
[11] = MX-1, irinotecan 30 mg/kg, Q2/3Dx9, i.v., Day 86, RECIST
[12] = irinotecan 15 mg/kg, 4 on/3 off, i.v.
[13] = irinotecan 30 mg/kg, Q2/3D, i.v.
[14] = cisplatin 3 mg/kg, Q3Dx14, i.p.

T1 sequence (P08183 whole entry): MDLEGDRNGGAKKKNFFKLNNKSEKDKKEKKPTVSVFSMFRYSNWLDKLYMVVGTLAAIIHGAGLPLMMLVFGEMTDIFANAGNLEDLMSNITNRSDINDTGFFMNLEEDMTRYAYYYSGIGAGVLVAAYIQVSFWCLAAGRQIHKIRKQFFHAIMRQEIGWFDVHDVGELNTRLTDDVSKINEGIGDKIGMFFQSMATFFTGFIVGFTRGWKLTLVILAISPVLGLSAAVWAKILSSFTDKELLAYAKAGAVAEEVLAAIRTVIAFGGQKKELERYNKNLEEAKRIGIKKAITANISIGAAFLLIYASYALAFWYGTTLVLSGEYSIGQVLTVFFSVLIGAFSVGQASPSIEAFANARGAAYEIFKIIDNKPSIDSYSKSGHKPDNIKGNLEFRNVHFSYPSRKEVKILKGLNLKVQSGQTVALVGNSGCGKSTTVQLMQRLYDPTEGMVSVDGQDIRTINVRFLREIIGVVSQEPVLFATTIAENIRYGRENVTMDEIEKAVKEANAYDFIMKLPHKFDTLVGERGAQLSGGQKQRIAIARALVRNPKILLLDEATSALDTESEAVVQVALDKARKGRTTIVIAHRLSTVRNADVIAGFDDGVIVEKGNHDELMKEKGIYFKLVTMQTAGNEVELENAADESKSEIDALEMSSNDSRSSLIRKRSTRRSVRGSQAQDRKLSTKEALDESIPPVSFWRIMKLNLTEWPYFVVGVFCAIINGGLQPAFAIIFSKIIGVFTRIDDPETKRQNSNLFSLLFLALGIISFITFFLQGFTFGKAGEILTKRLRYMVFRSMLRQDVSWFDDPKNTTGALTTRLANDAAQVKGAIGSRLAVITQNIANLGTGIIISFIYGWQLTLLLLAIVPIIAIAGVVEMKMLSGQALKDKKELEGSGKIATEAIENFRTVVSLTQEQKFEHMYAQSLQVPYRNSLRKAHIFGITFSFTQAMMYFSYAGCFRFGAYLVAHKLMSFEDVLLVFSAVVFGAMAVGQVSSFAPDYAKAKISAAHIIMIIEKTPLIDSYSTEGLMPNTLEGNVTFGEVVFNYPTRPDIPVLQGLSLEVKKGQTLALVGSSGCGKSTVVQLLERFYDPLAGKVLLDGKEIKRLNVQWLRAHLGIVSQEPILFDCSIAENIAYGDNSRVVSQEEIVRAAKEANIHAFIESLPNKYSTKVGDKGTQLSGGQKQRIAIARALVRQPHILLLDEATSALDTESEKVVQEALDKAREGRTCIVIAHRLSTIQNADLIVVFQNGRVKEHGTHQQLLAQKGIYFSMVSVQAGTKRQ

Q: How did the pIC50 [1] turn out when `CCc1c2c(nc3ccc(O)cc13)-c1cc3c(c(=O)n1C2)COC(=O)[C@]3(O)CC` [SN38] was run?
A: Its pIC50 is 6.29.

Q: What about the “Efflux Ratio” value [2] of the same compound?
A: Its value is 16.

Q: What about the “Permeability A → B” value [2] of the same compound?
A: The value was 1 ×10⁻⁶ cm/s.

Q: And the pIC50 [3]?
A: Its pIC50 is 7.35.

Q: What about the pIC50 [4] of the same compound?
A: The pIC50 was 6.85.

Q: And the “Efflux Ratio” value [5]?
A: The value was 36.

Q: And the “Permeability A → B” value [5]?
A: Its value is 0.8 ×10⁻⁶ cm/s.

Q: With `COc1cccc2c1C(=O)c1c(O)c3c(c(O)c1C2=O)C[C@@](O)(C(=O)CO)C[C@@H]3O[C@H]1C[C@H](N)[C@H](O)[C@H](C)O1` [Doxorubicin] as the compound, how does the “Treatment/Control Ratio” value ([6]; MX-1, doxorubicin 10 mg/kg, Q14Dx2, i.v., Day 86) read?
A: The value was 0.49 ***.

Q: Which results are given for `CC[C@@]1(O)C(=O)OCc2c1cc1n(c2=O)Cc2cc3c(CN(C)C)c(O)ccc3nc2-1` [Topotecan]?
A: Treatment/Control Ratio [7, 9]: 0.20 ***; Response: PD (progressive disease) [7, 9]: 7/8; Response: SD (stable disease) [7, 9]: 1/8; Relative body weight loss ([7]; NCI-H69 tumor-bearing mice, topotecan 0.5 mg/kg, 7 on/7 off, i.v.): > 10%

Q: Which results are given for `CCc1c2c(nc3ccc(OC(=O)N4CCC(N5CCCCC5)CC4)cc13)-c1cc3c(c(=O)n1C2)COC(=O)[C@]3(O)CC` [Irinotecan]?
A: Treatment/Control Ratio ([6]; MX-1, irinotecan 15 mg/kg, 4 on/3 off, i.v., Day 86): 0.002 ***; Response: CR (complete response) [6, 10]: CR: 4/8, PR: 4/8; Response: PR (partial response) [6, 10]: CR: 4/8, PR: 4/8; Tumor regrowth after treatment was stopped ([6]; MX-1, irinotecan 30 mg/kg, Q2/3Dx9, i.v.): clear tumor regrowth; Treatment/Control Ratio ([6]; MX-1, irinotecan 30 mg/kg, Q2/3Dx9, i.v., Day 86): 0.15 ***^, #; Response: PR (partial response) [6, 11]: 5/7; Response: SD (stable disease) [6, 11]: 2/7; Relative body weight loss ([6]; mouse, in vivo): > 10%; Tumor regrowth after treatment cessation ([8]; all VIP236- and irinotecan-treated mice): moderate tumor regrowth; Treatment/Control Ratio [8, 12]: 0.13 ***; Response: PR (partial response) [8, 12]: 5/8; Response: SD (stable disease) [8, 12]: 3/8; Treatment/Control Ratio [8, 13]: 0.15 ***; Response: PD (progressive disease) [8, 13]: 1/8; Response: PR (partial response) [8, 13]: 4/8; Response: SD (stable disease) [8, 13]: 3/8

Q: What does the source list for `N.N.[Cl][Pt][Cl]` [Cisplatin]?
A: Treatment/Control Ratio [7, 14]: 0.25 ***; Response: PD (progressive disease) [7, 14]: 7/8; Response: SD (stable disease) [7, 14]: 1/8; Relative body weight loss ([7]; NCI-H69 tumor-bearing mice, cisplatin 3 mg/kg, Q3Dx14, i.p.): > 10%; Animal deaths ([7]; NCI-H69 tumor-bearing mice, cisplatin 3 mg/kg, Q3Dx14, i.p., Day 46): one animal died

Q: Which results are given for `O=c1[nH]cc(F)c(=O)[nH]1` [5-FU, 5-fluorouracil]?
A: Treatment/Control Ratio ([8]; 5-FU 100 mg/kg, Q7D, i.p.): 0.54 ***; Response: PD (progressive disease) ([8]; 5-FU 100 mg/kg, Q7D, i.p.): PD: 8/8

Source: article PMC8773721, “A Small Molecule–Drug Conjugate (SMDC) Consisting of a Modified Camptothecin Payload Linked to an αVß3 Binder for the Treatment of Multiple Cancer Types” (Cancers, 2022)
